{
  "source": "ChEMBL document CHEMBL1137802",
  "about": "“Specific antioxidant activity of caffeoyl derivatives and other natural phenolic compounds: LDL protection against oxidation and decrease in the proinflammatory lysophosphatidylcholine production” (J Nat Prod, 2001)",
  "assay_type_in_all_cases": "functional, cell-free",
  "key": {"[1]": {"test": "Antioxidant activity against Cu2+-induced lipid peroxidation in human plasma LDL assessed as conjugated diene formation at 5 umol/L preincubated for 1 hr before Cu2+ challenge measured after 210 mins"}, "[2]": {"test": "Antioxidant activity against Cu2+-induced lipid peroxidation in human plasma LDL assessed as maximal compound concentration at 20 umol/L preincubated for 1 hr before Cu2+ challenge measured after 180 mins relative to compound present at 0 min"}, "[3]": {"test": "Antioxidant activity against Cu2+-induced lipid peroxidation in human plasma LDL assessed as maximal compound concentration at 20 umol/L preincubated for 1 hr before Cu2+ challenge measured after 15 mins relative to compound present at 0 min"}, "[4]": {"test": "Antioxidant activity against Cu2+-induced lipid peroxidation in human plasma LDL assessed as vitamin E consumption at 20 umol/L preincubated for 1 hr before Cu2+ challenge measured after 150 mins"}, "[5]": {"test": "Antioxidant activity against Cu2+-induced lipid peroxidation in human plasma LDL assessed as maximal compound concentration at 5 umol/L preincubated for 1 hr before Cu2+ challenge measured after 150 mins relative to compound present at 0 min"}, "[6]": {"test": "Antioxidant activity against Cu2+-induced lipid peroxidation in human plasma LDL assessed as lysophosphatidylcholine formation at 10 umol/L preincubated for 1 hr before Cu2+ challenge measured after 90 mins"}, "[7]": {"test": "Antioxidant activity against Cu2+-induced lipid peroxidation in human plasma LDL assessed as maximal compound concentration at 10 umol/L preincubated for 1 hr before Cu2+ challenge measured after 210 mins relative to compound present at 0 min"}, "[8]": {"test": "Antioxidant activity against Cu2+-induced lipid peroxidation in human plasma LDL assessed as maximal compound concentration at 10 umol/L preincubated for 1 hr before Cu2+ challenge measured after 45 mins relative to compound present at 0 min"}, "[9]": {"test": "Antioxidant activity against Cu2+-induced lipid peroxidation in human plasma LDL assessed as conjugated diene formation at 5 umol/L preincubated for 1 hr before Cu2+ challenge measured after 120 mins"}, "[10]": {"test": "Antioxidant activity against Cu2+-induced lipid peroxidation in human plasma LDL assessed as vitamin E consumption at 20 umol/L preincubated for 1 hr before Cu2+ challenge measured after 30 mins"}, "[11]": {"test": "Antioxidant activity against Cu2+-induced lipid peroxidation in human plasma LDL assessed as vitamin E consumption at 20 umol/L preincubated for 1 hr before Cu2+ challenge measured after 45 mins"}, "[12]": {"test": "Antioxidant activity against Cu2+-induced lipid peroxidation in human plasma LDL assessed as vitamin E consumption at 5 umol/L preincubated for 1 hr before Cu2+ challenge measured after 120 mins"}, "[13]": {"test": "Antioxidant activity against Cu2+-induced lipid peroxidation in human plasma LDL assessed as maximal compound concentration at 10 umol/L preincubated for 1 hr before Cu2+ challenge measured after 15 mins relative to compound present at 0 min"}, "[14]": {"test": "Antioxidant activity against Cu2+-induced lipid peroxidation in human plasma LDL assessed as conjugated diene formation at 5 umol/L preincubated for 1 hr before Cu2+ challenge measured after 360 mins"}, "[15]": {"test": "Antioxidant activity against Cu2+-induced lipid peroxidation in human plasma LDL assessed as maximal compound concentration at 5 umol/L preincubated for 1 hr before Cu2+ challenge measured after 30 mins relative to compound present at 0 min"}, "[16]": {"test": "Antioxidant activity against Cu2+-induced lipid peroxidation in human plasma LDL assessed as lysophosphatidylcholine formation at 20 umol/L preincubated for 1 hr before Cu2+ challenge measured after 210 mins"}, "[17]": {"test": "Antioxidant activity against Cu2+-induced lipid peroxidation in human plasma LDL assessed as vitamin E consumption at 20 umol/L preincubated for 1 hr before Cu2+ challenge measured after 180 mins"}, "[18]": {"test": "Antioxidant activity against Cu2+-induced lipid peroxidation in human plasma LDL assessed as vitamin E consumption at 20 umol/L preincubated for 1 hr before Cu2+ challenge measured after 270 mins"}, "[19]": {"test": "Antioxidant activity against Cu2+-induced lipid peroxidation in human plasma LDL assessed as maximal compound concentration at 10 umol/L preincubated for 1 hr before Cu2+ challenge measured after 120 mins relative to compound present at 0 min"}, "[20]": {"test": "Antioxidant activity against Cu2+-induced lipid peroxidation in human plasma LDL assessed as conjugated diene formation at 5 umol/L preincubated for 1 hr before Cu2+ challenge measured after 180 mins"}, "[21]": {"test": "Antioxidant activity against Cu2+-induced lipid peroxidation in human plasma LDL assessed as maximal compound concentration at 5 umol/L preincubated for 1 hr before Cu2+ challenge measured after 60 mins relative to compound present at 0 min"}, "[22]": {"test": "Antioxidant activity against Cu2+-induced lipid peroxidation in human plasma LDL assessed as maximal compound concentration at 20 umol/L preincubated for 1 hr before Cu2+ challenge measured after 120 mins relative to compound present at 0 min"}, "[23]": {"test": "Antioxidant activity against Cu2+-induced lipid peroxidation in human plasma LDL assessed as conjugated diene formation at 5 umol/L preincubated for 1 hr before Cu2+ challenge measured after 90 mins"}, "[24]": {"test": "Antioxidant activity against Cu2+-induced lipid peroxidation in human plasma LDL assessed as maximal compound concentration at 5 umol/L preincubated for 1 hr before Cu2+ challenge measured after 270 mins relative to compound present at 0 min"}, "[25]": {"test": "Antioxidant activity against Cu2+-induced lipid peroxidation in human plasma LDL assessed as lysophosphatidylcholine formation at 20 umol/L preincubated for 1 hr before Cu2+ challenge measured after 180 mins"}, "[26]": {"test": "Antioxidant activity against Cu2+-induced lipid peroxidation in human plasma LDL assessed as conjugated diene formation at 10 umol/L preincubated for 1 hr before Cu2+ challenge measured after 180 mins"}, "[27]": {"test": "Antioxidant activity against Cu2+-induced lipid peroxidation in human plasma LDL assessed as vitamin E consumption at 20 umol/L preincubated for 1 hr before Cu2+ challenge measured after 60 mins"}, "[28]": {"test": "Antioxidant activity against Cu2+-induced lipid peroxidation in human plasma LDL assessed as vitamin E consumption at 10 umol/L preincubated for 1 hr before Cu2+ challenge measured after 60 mins"}, "[29]": {"test": "Antioxidant activity against Cu2+-induced lipid peroxidation in human plasma LDL assessed as vitamin E consumption at 5 umol/L preincubated for 1 hr before Cu2+ challenge measured after 180 mins"}, "[30]": {"test": "Antioxidant activity against Cu2+-induced lipid peroxidation in human plasma LDL assessed as maximal compound concentration at 20 umol/L preincubated for 1 hr before Cu2+ challenge measured after 210 mins relative to compound present at 0 min"}, "[31]": {"test": "Antioxidant activity against Cu2+-induced lipid peroxidation in human plasma LDL assessed as maximal compound concentration at 5 umol/L preincubated for 1 hr before Cu2+ challenge measured after 90 mins relative to compound present at 0 min"}, "[32]": {"test": "Antioxidant activity against Cu2+-induced lipid peroxidation in human plasma LDL assessed as lysophosphatidylcholine formation at 5 umol/L preincubated for 1 hr before Cu2+ challenge measured after 180 mins"}, "[33]": {"test": "Antioxidant activity against Cu2+-induced lipid peroxidation in human plasma LDL assessed as conjugated diene formation at 5 umol/L preincubated for 1 hr before Cu2+ challenge measured after 150 mins"}},
  "data": [
    {"smiles": "CC(C)(Sc1cc(C(C)(C)C)c(O)c(C(C)(C)C)c1)Sc1cc(C(C)(C)C)c(O)c(C(C)(C)C)c1", "values": [
      {"measurement": "Activity", "setting": "[1]", "value": 80.8, "unit": "%"},
      {"measurement": "Activity", "setting": "[2]", "value": 34.4, "unit": "%"},
      {"measurement": "Activity", "setting": "[3]", "value": 97, "unit": "%"},
      {"measurement": "Activity", "setting": "[4]", "value": 0, "unit": "%"},
      {"measurement": "Activity", "setting": "[5]", "value": 28.6, "unit": "%"},
      {"measurement": "Activity", "setting": "[6]", "value": 0, "unit": "%"},
      {"measurement": "Activity", "setting": "[7]", "value": 21.6, "unit": "%"},
      {"measurement": "Activity", "setting": "[8]", "value": 73, "unit": "%"},
      {"measurement": "Activity", "setting": "[9]", "value": 78.6, "unit": "%"},
      {"measurement": "Activity", "setting": "[10]", "value": 19.9, "unit": "%"},
      {"measurement": "Activity", "setting": "[11]", "value": 7.5, "unit": "%"},
      {"measurement": "Activity", "setting": "[12]", "value": 0, "unit": "%"},
      {"measurement": "Activity", "setting": "[13]", "value": 86.6, "unit": "%"},
      {"measurement": "Activity", "setting": "[14]", "value": 100, "unit": "%"},
      {"measurement": "Activity", "setting": "[15]", "value": 94.8, "unit": "%"},
      {"measurement": "Activity", "setting": "[16]", "value": 1.4, "unit": "%"},
      {"measurement": "Activity", "setting": "[17]", "value": 0, "unit": "%"},
      {"measurement": "Activity", "setting": "[18]", "value": 0, "unit": "%"},
      {"measurement": "Activity", "setting": "[19]", "value": 37.2, "unit": "%"},
      {"measurement": "Activity", "setting": "[20]", "value": 79.5, "unit": "%"},
      {"measurement": "Activity", "setting": "[21]", "value": 118, "unit": "%"},
      {"measurement": "Activity", "setting": "[22]", "value": 43.2, "unit": "%"},
      {"measurement": "Activity", "setting": "[23]", "value": 37.9, "unit": "%"},
      {"measurement": "Activity", "setting": "[24]", "value": 22.5, "unit": "%"},
      {"measurement": "Activity", "setting": "[25]", "value": 1.5, "unit": "%"},
      {"measurement": "Activity", "setting": "[26]", "value": 77.3, "unit": "%"},
      {"measurement": "Activity", "setting": "[27]", "value": 5.5, "unit": "%"},
      {"measurement": "Activity", "setting": "[28]", "value": 0, "unit": "%"},
      {"measurement": "Activity", "setting": "[29]", "value": 0, "unit": "%"},
      {"measurement": "Activity", "setting": "[30]", "value": 38.3, "unit": "%"},
      {"measurement": "Activity", "setting": "[31]", "value": 55.3, "unit": "%"},
      {"measurement": "Activity", "setting": "[32]", "value": 19.4, "unit": "%"},
      {"measurement": "Activity", "setting": "[33]", "value": 78.3, "unit": "%"}
    ]}
  ]
}
